In patent US7626021B2, “Fused ring heterocycle kinase modulators” (SGX Pharmaceuticals, Inc., priority 2004, dated 2009):

The molecules below were run on Ba/F3 cells transfected with T315I BCR-ABL (assay: BCR-ABL phospho-ELISA in T315I cells or Ba/F3 T315I proliferation (XTT)). Settings: Mus musculus, BaF3, phospho-ELISA or 72 h XTT proliferation, read-out: P_ELISA_[T3151l_Cells] or Ba/F3 T315l proliferation (XTT).
Assay type: cell-based
Protocol: MV4-11 and THP cells were maintained in Iscove's Modified Dulbecco's Medium supplemented with 10% fetal bovine serum (FBS) and penicillin/streptomycin, Ba/F3 cells were maintained in RPMI 1640 supplemented with 10% FBS, penicillin/streptomycin and 5 ng/ml recombinant mouse IL-3.
Compounds were tested in the following assays in duplicate.
96-well XTT assay: Cells were grown in growth media containing various concentrations of compounds (duplicates) on a 96-well plate for 72 hours at 37° C. The starting cell number was 5000-8000 cells per well and volume was 120 μl. At the end of the 72-hour incubation, 40 μl of XTT labeling mixture (50:1 solution of sodium 3′-[1-(phenylamino-carbonyl)-3,4-tetrazolium]-bis(4-methoxy-6-nitro) benzene sulfonic acid hydrate and Electron-coupling reagent: PMS (N-methyl dibenzopyrazine methyl sulfate) were added to each well of the plate. After an additional 2-6 hours of incubation at 37° C., the absorbance reading at 405 nm with background correction at 650 nm was measured with a spectrophotometer.
BCR-ABL Phospho-ELISA Assay
Cells (Ba/F3 cells transfected with WT BCR-ABL, other kinases, or T315I, Y253F, or other mutant forms of BCR-ABL) were grown in the absence of IL-3 at least ½ week before the assay. The day before assay, the cells were fed with fresh media so that at the time of assay the cells were in log phase. Ba/F3 cells that had been grown in the absence of IL-3 for at least ½ week were resuspended in RPMI 1640 so that each well of a 96-well plate would contain approximately 200,000 cells. Cells were distributed in a 96-well plate containing serially diluted concentrations of test compounds. Cells were typically incubated with or without test compounds for 60-120 minutes at 5% CO2, 37° C. The incubation was performed with or without other additives such as 10% FCS or 50% human plasma. After incubation of compounds, lysis buffer was added and incubated for 10-15 minutes; the lysate was cleared by centrifugation.
To make the ELISA plate, commercially available Anti-ABL antibodies (e.g. (Ab-3, Calbiochem OP20) were prepared at a concentration of 0.125 μg/ml in coating buffer (0.1M Na-carbonate, pH 9.5), and plated at 10 ml per plate ([…] 100 μg/ml Ab/10 ml). In a high binding multi-well plate, 100 μl Ab in coating buffer were added to each well, and each plate was covered with a plate seal and incubated overnight at 4° C.
Excess antibody was removed and the ELISA plate was washed 3-4 times with 200 μl of wash buffer (0.05% Tween in PBS, pH 7.4). 150 μl of lysate (see above) were transferred to the ELISA plate. Plates were sealed and incubated 2 hours at room temperature. The detection antibody (e.g. HRP conjugated anti-pTyr or unconjugated α-p-Y 4G10, Upstate) was prepared in assay diluent. The antibody was diluted 1:1000 (stock=2 μg/μl, 200 μg in 100 μl; f.c.=2 μg/ml) in assay diluent and 10 ml of diluted antibody per plate were added. The lysate was removed from the ELISA plates, and wells were washed four times with 200 μl of wash buffer per well. 100 μl of detection antibody was added to each well; the plate was covered, and incubated 1 hr at room temperature (21° C.). Excess detection antibody was removed from the ELISA plates, and the wells were washed four times with 200 μl of wash buffer per well.
If necessary, (i.e. for unconjugated anti-pTyr antibody) secondary antibody (goat anti-rabbit HRP) was diluted 1:3000 in assay diluent (3.33 μl per 10 ml diluent) and added at 10 ml of diluted antibody per plate. Excess secondary antibody was removed from the ELISA plate, and the plate was washed four times with 200 μl per well of wash buffer.
Substrate Reagent A and Substrate Reagent B (Pierce Cat#37070 SuperSignal ELISA Pico Chemiluminescent Substrate) were added immediately before use (10 ml resultant solution per plate). 100 μl substrate were added per well, mixed for 1 minute, and chemiluminescent signal was measured with a luminometer.

SMILES | IC50 [nM]
COc1ccccc1-c1n[nH]c2ncc(-c3cnc4[nH]n(C)c(=O)c4c3)cc12 | 1000 to 10000
COc1c(F)cccc1-c1n[nH]c2ncc(-c3cccc(C(=O)N4CCOCC4)c3)cc12 | < 1000
Cc1ccsc1-c1n[nH]c2ncc(-c3cccc(C(=O)N4CCOCC4)c3)cc12 | < 1000
COc1ccccc1-c1n[nH]c2ncc(-c3ccc(O)c(C(=O)N4CCOCC4)c3)cc12 | < 1000
O=C(c1cccc(-c2cnc3[nH]nc(-c4ccc5cc[nH]c5c4)c3c2)c1)N1CCOCC1 | 1000 to 10000
COc1ccccc1-c1n[nH]c2ncc(-c3ccc(C(=O)N4CCOCC4)cc3)cc12 | 1000 to 10000
Cn1ccc2cc(-c3n[nH]c4ncc(-c5cccc(C(=O)N6CCOCC6)c5)cc34)ccc21 | 1000 to 10000
O=C(c1cccc(-c2cnc3[nH]nc(-c4cccc5cccnc45)c3c2)c1)N1CCOCC1 | < 1000
CCN1CCN(C(=O)c2cccc(-c3cnc4[nH]nc(-c5cc(F)ccc5OC)c4c3)c2)CC1 | < 1000
O=C(c1cccc(-c2cnc3[nH]nc(-c4ccncc4Cl)c3c2)c1)N1CCOCC1 | 1000 to 10000
Cc1cc(F)ccc1-c1n[nH]c2ncc(-c3cccc(C(=O)N4CCOCC4)c3)cc12 | 1000 to 10000
COc1ncc(-c2n[nH]c3ncc(-c4cccc(C(=O)N5CCOCC5)c4)cc23)c(OC)n1 | 1000 to 10000
CCOc1ccccc1-c1n[nH]c2ncc(-c3cccc(C(=O)N4CCOCC4)c3)cc12 | 1000 to 10000
Oc1cccc(-c2cnc3[nH]nc(-c4ccccc4)c3c2)c1 | < 1000
c1ccc(-c2n[nH]c3ncc(-c4ccc5[nH]ccc5c4)cc23)cc1 | 1000 to 10000
CCc1ccccc1-c1n[nH]c2ncc(-c3cccc(C(=O)N4CCOCC4)c3)cc12 | < 1000
c1ccc(-c2n[nH]c3ncc(-c4cccnc4)cc23)cc1 | > 10000
COc1ccccc1-c1n[nH]c2ncc(Br)cc12 | 1000 to 10000

Now from value to molecule:

IC50 [nM] | SMILES
1000 to 10000 | COc1cc(-c2cnc3[nH]nc(-c4ccccc4)c3c2)ccc1O
< 1000 | COc1ccccc1-c1n[nH]c2ncc(-c3cccc(C(=O)N4CCN(CCN(C)C)CC4)c3)cc12
1000 to 10000 | COc1ccccc1-c1n[nH]c2ncc(-c3cccnc3)cc12
> 10000 | COc1ccccc1-c1c[nH]c2ncc(-c3cccc(C(=O)N(C)C)c3)nc12
< 1000 | COc1ccccc1-c1n[nH]c2ncc(-c3cccc(C(=O)N(C)C)c3)cc12
< 1000 | COc1ccccc1-c1n[nH]c2ncc(-c3ccc(C(=O)NC4CC4)cc3)cc12
< 1000 | COc1ccccc1-c1n[nH]c2ncc(-c3cccc(C(=O)N4CCC(CO)CC4)c3)cc12
< 1000 | COc1ccccc1-c1n[nH]c2ncc(-c3cccc(C(=O)N4CCN(C)CC4)c3)cc12
< 1000 | COc1ccccc1-c1n[nH]c2ncc(-c3cccc(C(=O)N4CCCC4)c3)cc12
< 1000 | COc1cc(-c2cnc3[nH]cc(-c4ccc(C)cc4)c3n2)ccc1O
1000 to 10000 | COc1ccccc1-c1cnc2[nH]nc(-c3ccccc3OC)c2c1
< 1000 | COc1ccccc1-c1n[nH]c2ncc(-c3ccc(C(=O)N4CCN(C)CC4)cc3)cc12
1000 to 10000 | COc1ccccc1-c1n[nH]c2ncc(-c3ccc(C(=O)N4CCCC4)cc3)cc12
1000 to 10000 | COc1ccccc1-c1n[nH]c2ncc(-c3cccc(C(=O)NC(C)C)c3)cc12
< 1000 | COc1ccccc1-c1n[nH]c2ncc(-c3cccc(S(=O)(=O)NC4CC4)c3)cc12

The molecules below were run against T1, PDK1 kinase (Homo sapiens, UniProt O15530) (assay: PDK1 luminescence-based enzyme assay (Kinase-Glo)). Settings: not given.
T1 construct: 6x Histidine tag (TEV-cleavable) (cleaved yes); made in house; host or cells: Sf9 insect cells
T1 sequence (O15530 1-556): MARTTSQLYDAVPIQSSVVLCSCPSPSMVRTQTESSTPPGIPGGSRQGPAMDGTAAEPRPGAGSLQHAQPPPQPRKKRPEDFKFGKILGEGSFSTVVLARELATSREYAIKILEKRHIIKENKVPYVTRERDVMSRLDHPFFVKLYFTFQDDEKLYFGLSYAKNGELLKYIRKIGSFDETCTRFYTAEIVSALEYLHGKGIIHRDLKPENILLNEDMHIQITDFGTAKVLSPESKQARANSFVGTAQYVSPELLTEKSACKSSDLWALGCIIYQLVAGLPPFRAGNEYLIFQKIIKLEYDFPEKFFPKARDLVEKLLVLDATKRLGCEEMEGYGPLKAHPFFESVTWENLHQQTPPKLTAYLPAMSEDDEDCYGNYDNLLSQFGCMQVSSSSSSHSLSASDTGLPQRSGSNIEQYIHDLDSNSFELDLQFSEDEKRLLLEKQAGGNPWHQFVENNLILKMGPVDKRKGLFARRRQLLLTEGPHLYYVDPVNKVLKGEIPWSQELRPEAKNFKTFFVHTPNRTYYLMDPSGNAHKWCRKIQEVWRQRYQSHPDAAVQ
Assay type: biochemical
From the text: In addition to the c-Abl PK/LDH coupled assay (above), homogeneous luminescence-based inhibitor screening assays were developed for c-Abl, MET, AurA, and PDK1 kinases (among others). Each of these assays made use of an ATP depletion assay (Kinase-Glo™, Promega Corporation, Madison, Wis.) to quantitate kinase activity. The Kinase-Glo™ format uses a thermostable luciferase to generate luminescent signal from ATP remaining in solution following the kinase reaction. The luminescent signal is inversely correlated with the amount of kinase activity.
PDK1 Luminescence-Based Enzyme Assay
Standard Assay Setup for 384-well format (20 μl kinase reaction, 40 μl detection reaction): 10 mM MgCl2; 0.01 mM PDKtide; 1 μl test compound (in DMSO); 0.1 μg/ml PDK1 kinase; 5 μM ATP; 1 mM MgCl2; 100 mM HEPES+0.01% Brij buffer. Positive controls contained DMSO with no test compound. Negative controls contained 10 μM staurosporine. The kinase reactions were initiated at time t=0 by the addition of ATP. Kinase reactions were incubated at 21° C. for 40 min, then 20 μl of Kinase-Glo™ reagent were added to each well to quench the kinase reaction and initiate the luminescence reaction. After a 20 min incubation at 21° C., the luminescence was detected in a plate-reading luminometer.

SMILES | IC50 [µM]
COc1ccccc1-c1n[nH]c2ncc(-c3ccc(C(=O)N4CCOCC4)cc3)cc12 | 1 to 10
COc1ccccc1-c1n[nH]c2ncc(-c3ccc(C(=O)N4CCCCC4)cc3)cc12 | 1 to 10

Other lines, results leading:

IC50 [µM] | SMILES
1 to 10 | COc1cc(-c2cnc3[nH]nc(-c4ccccc4)c3c2)ccc1O
1 to 10 | COc1ccccc1-c1n[nH]c2ncc(-c3ccc(C(=O)N4CCN(C)CC4)cc3)cc12
1 to 10 | COc1ccccc1-c1n[nH]c2ncc(-c3ccc(C(=O)N4CCCC4)cc3)cc12

Same assay, conditions: read-out: PDK1 IC50

IC50 [µM] | SMILES
1 to 10 | COc1cc(-c2cnc3[nH]cc(-c4ccc(C)cc4)c3n2)ccc1O
